Broadly, the ED50 is the midpoint of the dose-response relation. Usually pIC50 stands for the negative decadic logarithm of the IC50, by convention in mol/L. The low end stands for a large IC50, the high end for a small IC50. Broadly, the half-life is the time in which the quantity being followed falls by half. Read a low half-life as rapid decline.

pIC50: −log10 of the molar value.

Experimental findings from ChEMBL document CHEMBL1821572, “Discovery of a novel series of selective HCN1 blockers” (Bioorg Med Chem Lett, 2011) are described below.

Data set [1] is filed under the species Mus musculus. Description: Toxicity in C57BL/6 mouse assessed as induction of bradycardia after 50 mins by ECG study. Format: organism-based. To be noted: in vivo.
Data set [2] relates to Mus musculus. Description: Antiallodynic activity in ip dosed C57BL/6 mouse spared-nerve injury model assessed as reduction of tactile allodynia after 60 mins. Format: functional. To be noted: C57BL/6, ip, 1 h.
Data set [3] addresses T1, Potassium/sodium hyperpolarization-activated cyclic nucleotide-gated channel 2 (Homo sapiens, UniProt Q9UL51).
T1 sequence (Q9UL51 whole entry): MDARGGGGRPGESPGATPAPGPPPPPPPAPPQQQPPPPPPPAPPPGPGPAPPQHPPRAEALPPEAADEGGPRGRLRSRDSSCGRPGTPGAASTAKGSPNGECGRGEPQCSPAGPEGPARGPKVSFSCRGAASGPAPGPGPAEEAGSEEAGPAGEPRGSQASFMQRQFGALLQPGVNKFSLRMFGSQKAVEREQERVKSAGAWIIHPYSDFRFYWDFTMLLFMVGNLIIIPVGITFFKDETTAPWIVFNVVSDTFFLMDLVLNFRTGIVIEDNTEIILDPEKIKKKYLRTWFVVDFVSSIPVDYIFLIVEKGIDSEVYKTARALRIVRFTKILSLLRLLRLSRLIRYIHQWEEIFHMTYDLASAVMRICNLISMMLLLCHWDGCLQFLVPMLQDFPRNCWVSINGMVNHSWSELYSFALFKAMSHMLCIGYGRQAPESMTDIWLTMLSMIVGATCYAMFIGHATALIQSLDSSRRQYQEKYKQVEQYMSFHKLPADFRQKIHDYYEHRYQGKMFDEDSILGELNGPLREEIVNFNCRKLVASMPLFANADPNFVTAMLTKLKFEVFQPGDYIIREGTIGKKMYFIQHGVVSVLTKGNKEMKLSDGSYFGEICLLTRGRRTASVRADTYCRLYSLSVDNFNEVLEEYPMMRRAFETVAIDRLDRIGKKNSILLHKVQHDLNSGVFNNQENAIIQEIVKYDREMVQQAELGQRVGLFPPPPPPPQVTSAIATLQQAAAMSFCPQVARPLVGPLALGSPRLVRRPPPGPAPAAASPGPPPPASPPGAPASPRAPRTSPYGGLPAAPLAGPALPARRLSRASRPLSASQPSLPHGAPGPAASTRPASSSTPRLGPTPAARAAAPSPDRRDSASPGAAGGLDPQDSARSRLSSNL
Description: Inhibition of human HCN2 heterologously expressed in HEK-293 cells after 30 mins by VIPR assay. Format: cell-based, HEK293.

Data set [4] in a line: Half life in human liver microsomes. Format: ADME, Microsome.
The species entered for the next data set is Homo sapiens. Description: Selectivity for human HCN1 over human HCN4.
Data set [5] deals with T2, Potassium/sodium hyperpolarization-activated cyclic nucleotide-gated channel 4 (Homo sapiens, UniProt Q9Y3Q4).
T2 sequence (Q9Y3Q4 whole entry): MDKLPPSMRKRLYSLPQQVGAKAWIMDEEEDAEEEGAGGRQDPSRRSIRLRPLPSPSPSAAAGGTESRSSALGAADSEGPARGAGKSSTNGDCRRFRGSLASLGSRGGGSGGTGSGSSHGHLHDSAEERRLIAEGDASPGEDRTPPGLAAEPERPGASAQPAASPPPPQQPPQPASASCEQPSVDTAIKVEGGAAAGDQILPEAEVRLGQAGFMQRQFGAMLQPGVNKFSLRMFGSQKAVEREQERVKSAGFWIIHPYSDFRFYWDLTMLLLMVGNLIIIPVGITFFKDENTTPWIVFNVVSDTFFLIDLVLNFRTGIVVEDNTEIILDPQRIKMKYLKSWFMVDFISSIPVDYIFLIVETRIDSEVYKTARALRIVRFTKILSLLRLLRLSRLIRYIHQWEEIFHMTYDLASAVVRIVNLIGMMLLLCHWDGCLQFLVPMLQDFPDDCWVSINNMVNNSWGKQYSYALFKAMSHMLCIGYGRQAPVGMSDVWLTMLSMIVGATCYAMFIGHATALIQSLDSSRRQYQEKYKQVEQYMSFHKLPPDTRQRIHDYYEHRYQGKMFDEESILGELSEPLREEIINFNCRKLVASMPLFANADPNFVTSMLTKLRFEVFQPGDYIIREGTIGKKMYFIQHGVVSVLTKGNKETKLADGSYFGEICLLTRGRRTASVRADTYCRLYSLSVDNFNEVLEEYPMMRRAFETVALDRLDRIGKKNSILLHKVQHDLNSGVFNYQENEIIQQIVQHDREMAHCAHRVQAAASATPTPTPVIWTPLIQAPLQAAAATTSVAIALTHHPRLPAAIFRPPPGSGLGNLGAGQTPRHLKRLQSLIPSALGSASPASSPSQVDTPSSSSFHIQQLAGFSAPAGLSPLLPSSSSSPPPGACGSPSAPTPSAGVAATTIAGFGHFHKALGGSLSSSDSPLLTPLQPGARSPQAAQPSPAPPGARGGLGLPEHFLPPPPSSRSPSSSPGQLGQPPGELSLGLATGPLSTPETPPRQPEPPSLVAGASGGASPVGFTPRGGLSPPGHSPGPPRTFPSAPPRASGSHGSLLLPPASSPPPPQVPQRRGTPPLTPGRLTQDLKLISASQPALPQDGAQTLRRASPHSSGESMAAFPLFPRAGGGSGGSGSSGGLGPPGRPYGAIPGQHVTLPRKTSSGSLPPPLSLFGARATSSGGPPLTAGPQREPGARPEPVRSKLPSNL
Description: Inhibition of human HCN4 heterologously expressed in HEK-293 cells after 30 mins by VIPR assay. Format: cell-based, HEK293.

Regarding `CCOc1ccccc1C(=O)NCC1(N2CCNCC2)CCCCC1`, the ED20 in the data set listed under Mus musculus [1] was 25 mg/kg. For the same molecule, the ED50 with Mus musculus [2] amounted to 6 mg/kg. Further, the pIC50 in data set [3] is 5.30; in data set [5], 5.40. In data set [4], this molecule gave a half-life of 3.92 h. Further, the Selectivity ratio in the data set filed under Homo sapiens worked out at 10.
